Source: US11452752B2, “Composition for antioxidation, anti-inflammation, or osteoclast differentiation inhibition” (NATURAL ENDOTECH CO., LTD., priority 2017, dated 2022)

How the values were obtained:
[1] = system: osteoclast differentiation of Raw 264.7 cells; assay: RANKL-induced osteoclast differentiation inhibition (osteoclast count); type: cell-based; conditions: Mus musculus, RAW264.7, 96 h; 10 mM; 50 ng/mL RANKL, 4 days; read-out: osteoclast differentiation inhibitory effect
Experimental: The media were removed after the incubation, followed by washing with PBS, and then the cells were fixed and stained using a leukocyte acid phosphatase kit (Sigma). After the staining, the osteoclasts were counted using a microscope, and the osteoclast count in a sample was expressed as a percentage relative to the control.

[2] = system: nitric oxide (NO) production in RAW264.7 cells; assay: Nitric oxide (NO) production inhibition, GRIESS assay, LPS-stimulated cells; type: cell-based; conditions: 12.5 μM; 500 ng/mL LPS, 24 hours
Experimental: After the incubation, 100 μL of the supernatant was taken and transferred into a 96-well plate, and 100 μL of GRIESS solution was added, followed by incubation for 10 minutes. Thereafter, the absorbance was measured at 540 nm using a microplate reader to determine the NO production inhibitory effect.

Structure (SMILES) | inhibition at 10000 µM [1] [%] | NO production [2] [%]
NCCCC(O)(P(=O)(O)O)P(=O)(O)O [alendronate] | 72.2 | –
Cc1ccc(-c2cc(C(F)(F)F)nn2-c2ccc(S(N)(=O)=O)cc2)cc1 [celecoxib] | – | 46.7
